The values that follow come from patent US9688721B2, “Tubulysin compounds, methods of making and use” (priority 2013, dated 2017).

One assay has as its system H226 lung cancer cells. Briefly: ATP luminescence assay (CELLTITER-GLO), H226 cells. Format: cell-based. On the procedure:
(§1) As controls, doxorubicin and the tubulysin analog Compound A, which contains an acetate group instead of a carbamate group at the Tuv subunit, were used. Compound A can be prepared according to the teachings of Cheng et al. 2011.
(§2) Tumor cell lines were obtained from the American Type Culture Collection (ATCC), P.O. Box 1549, Manassas, Va. 20108, USA, and cultured according to ATCC instructions. Cells were seeded at 1.0×10^3 cells/well in 96-well plates for 3 h for the ATP assays. 1:3 serial dilutions of the compounds were added to the wells. Plates were allowed to incubate for 24 to 72 h. […] The EC50 values—the concentration at which an agent inhibits or reduces cell proliferation by 50%—were determined using PRISM™ software, version 4.0 (GraphPad Software, La Jolla, Calif., USA).

Another assay relates to 786-O renal cancer cells. The experiment in a line: ATP luminescence assay (CELLTITER-GLO), 786-O cells. Format: cell-based. On the procedure: as §1, §2
The next assay has as its system N87 gastric cancer cells. As to conditions: ATP luminescence assay. On the procedure:
as §2

Like-named read-outs stand apart in the source and are kept apart here.

`COc1cccc2c1C(=O)c1c(O)c3c(c(O)c1C2=O)C[C@@](O)(C(=O)CO)C[C@@H]3O[C@H]1C[C@H](N)[C@H](O)[C@H](C)O1` [doxorubicin, reference compound]: the EC50 with H226 lung cancer cells (Homo sapiens, NCI-H226, H226 lung cancer cells, ATP luminescence assay, read-out: EC50) worked out at 115 nM; in the assay on 786-O renal cancer cells (Homo sapiens, 786-0, 786-O renal cancer cells, ATP luminescence assay, read-out: EC50), 68.9 nM.
Regarding `CC[C@H](C)[C@H](NC(=O)[C@H]1CCCCN1C)C(=O)N(C)[C@H](C[C@@H](OC(=O)N(C)C)c1nc(C(=O)N[C@@H](Cc2ccc(N)cc2)C[C@H](C)C(=O)O)cs1)C(C)C` [Compound 75c], the response in the assay on N87 gastric cancer cells was half-maximal at 5.4 nM (EC50).
Regarding `CC[C@H](C)[C@H](NC(=O)[C@H]1CCCCN1C)C(=O)N(C)[C@H](C[C@@H](OC(C)=O)c1nc(C(=O)N[C@@H](Cc2ccccc2)C[C@H](C)C(=O)O)cs1)C(C)C` [Compound A, reference compound], the EC50 with H226 lung cancer cells (Homo sapiens, NCI-H226) is 2.4 nM; with 786-O renal cancer cells (Homo sapiens, 786-0), 1.2 nM.
`CC[C@H](C)[C@H](NC(=O)[C@H]1CCCCN1C)C(=O)N(C)[C@H](C[C@@H](OC(=O)Nc1ccccc1)c1nc(C(=O)N[C@@H](Cc2ccc(N)cc2)C[C@H](C)C(=O)O)cs1)C(C)C` [Compound 75b]: a half-maximal response in the assay on N87 gastric cancer cells (EC50) required 0.39 nM.
In the case of `CC[C@H](C)[C@H](NC(=O)[C@H]1CCCCN1C)C(=O)N(COC(=O)CC(C)C)[C@H](C[C@@H](OC(C)=O)c1nc(C(=O)N[C@@H](Cc2ccccc2)C[C@H](C)C(=O)O)cs1)C(C)C` [tubulysin D, reference compound], the EC50 with H226 lung cancer cells (H226 lung cancer cells, ATP luminescence assay, read-out: EC50) was determined as 0.05 nM; in the assay with 786-O renal cancer cells (786-O renal cancer cells, ATP luminescence assay, read-out: EC50), 0.02 nM.
As to `CC[C@H](C)[C@H](NC(=O)[C@H]1CCCCN1C)C(=O)N(CCc1ccc(N)cc1)[C@H](C[C@@H](OC(=O)NC)c1nc(C(=O)N[C@@H](Cc2ccccc2)CC(C)C(=O)OC)cs1)C(C)C` (some centres unmarked) [(I-6)], the EC50 in the assay with H226 lung cancer cells (Homo sapiens, NCI-H226) is 9.9 nM; in the assay on 786-O renal cancer cells (Homo sapiens, 786-0), 22.8 nM.
Consider `CC[C@H](C)[C@H](NC(=O)[C@H]1CCCCN1C)C(=O)N(CCc1ccc(N)cc1)[C@H](C[C@@H](OC(=O)NC)c1nc(C(=O)N[C@@H](Cc2ccccc2)CC(C)C(=O)O)cs1)C(C)C` (some centres unmarked) [(I-7)], for which the EC50 in the assay on H226 lung cancer cells (Homo sapiens, NCI-H226) amounted to 15.4 nM; in the assay on 786-O renal cancer cells (Homo sapiens, 786-0), 12.5 nM.
On the same counts, the results for `CCOC(=O)C(C)C[C@H](Cc1ccccc1)NC(=O)c1csc([C@@H](C[C@H](C(C)C)N(CCc2ccc(N)cc2)C(=O)[C@@H](NC(=O)[C@H]2CCCCN2C)[C@@H](C)CC)OC(=O)NC)n1` (some centres unmarked) [(I-5)] are 19.5 nM and 22.9 nM.
